Reference: patent publication US20140051679A1, “KINASE INHIBITORS AND METHOD OF TREATING CANCER WITH SAME” (UNIVERISTY HEALTH NETWORKS, priority 2011, published 2014)

Experiments:
Format in all cases: biochemical
Aurora B = biological target: T1, Aurora B (Homo sapiens, UniProt Q96GD4); experiment: Aurora B inhibition assay (Z-Lyte); settings: 28 nM Aurora B, 128 μM ATP; read-out: IC50 Ranges Aurora B
T1 construct: purchased Invitrogen PV3970
Description: Aurora B inhibition was determined using the Z-Lyte assay kit from Invitrogen. The assay was performed using the recommended manufacturer's instructions with 128 μM ATP and 28 nM Aurora B (Invitrogen cat #PV3970). The % inhibition values were determined according to the manufacturer's directions and IC50 values were obtained using a non-linear 4 point logistic curve fit (XLfit4, IDBS)

human PLK4 = biological target: T2, human PLK4 (Homo sapiens, UniProt O00444); experiment: PLK4 inhibition assay (indirect ELISA); settings: GST-PLK4 4 nM, 15 μM ATP; read-out: IC50 Ranges PLK4
T2 construct: amino terminal GST fusion of residues 1-391 of human PLK4; made in house; host or cells: E. coli
T2 sequence (O00444 1-391): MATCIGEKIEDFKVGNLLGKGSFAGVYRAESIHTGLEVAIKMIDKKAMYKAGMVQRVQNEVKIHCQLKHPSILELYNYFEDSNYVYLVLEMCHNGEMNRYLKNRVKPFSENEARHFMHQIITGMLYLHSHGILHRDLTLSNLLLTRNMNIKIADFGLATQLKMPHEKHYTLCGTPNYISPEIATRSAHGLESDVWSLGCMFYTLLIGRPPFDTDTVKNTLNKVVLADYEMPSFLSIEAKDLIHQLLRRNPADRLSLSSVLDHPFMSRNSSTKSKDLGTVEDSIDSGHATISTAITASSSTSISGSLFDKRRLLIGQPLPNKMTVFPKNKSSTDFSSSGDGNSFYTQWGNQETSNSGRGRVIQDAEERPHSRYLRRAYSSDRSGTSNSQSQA
Description: Active PLK4 was purified from an E. coli expression system as an amino terminal GST fusion of residues 1-391 of human PLK4. The protein was purified from clarified cell extracts after induction at 15° C. overnight using glutathione sepharose, gel permeation chromatography, and ion exchange (Resource Q). The resulting protein was dephosphorylated with lambda phosphatase (NEB cat#P0753), and resolved from the phosphatase using gluthione sepharose. The dephosphorylated GST-PLK4 was stored in aliquots at −80° C. until use.
PLK4 activity was measured using an indirect ELISA detection system. GST-PLK4 (4 nM) was incubated in the presence of 15 μM ATP (Sigma cat#A7699), 50 mM HEPES-Na^2+ pH 7.5, 10 mM MgCl2, 0.01% Brij 35 (Sigma cat#03-3170), in a 96 well microtitre plate pre-coated with MBP (Millipore cat#30-011). The reaction was allowed to proceed for 30 minutes, followed by 5 washes of the plate with Wash Buffer (phosphate buffered saline supplemented with 0.2% Tween 20), and incubation for 30 minutes with a 1:3000 dilution of primary antibody (Cell Signaling cat#9381). The plate was washed 5 times with Wash Buffer, incubated for 30 minutes in the presence of secondary antibody coupled to horse radish peroxidase (BioRad cat#1721019, 1:3000 concentration), washed an additional 5 times with Wash Buffer, and incubated in the presence of TMB substrate (Sigma cat#T0440). The colourimetric reaction was allowed to continue for 5 minutes, followed by addition of stop solution (0.5 N sulphuric acid), and quantified by detection at 450 nm with either a monochromatic or filter based plate reader (Molecular Devices M5 or Beckman DTX880, respectively).
Compound inhibition was determined at either a fixed concentration (10 μM) or at a variable inhibitor concentration (typically 0.5 μM to 0.001 μM in a 10 point dose response titration). Compounds were pre-incubated in the presence of enzyme for 15 minutes prior to addition of ATP and the activity remaining quantified using the above described activity assay. The % Inhibition of a compound was determined using the following formula; % Inhibition=100×(1-(experimental value−background value)/(high activity control−background value)). The IC50 value was determined using a non-linear 4 point logistic curve fit (XLfit4, IDBS) with the formula; (A+(B/(1+((x/C)̂D)))), where A=background value, B=range, C=inflection point, D=curve fit parameter.

human TTK = biological target: T3, human TTK (Homo sapiens, UniProt P33981); experiment: TTK inhibition assay (indirect ELISA); settings: GST-TTK 0.68 nM, 16 μM ATP; read-out: IC50 Ranges TTK
T3 construct: amino terminal GST fusion of full length human TTK; purchased Invitrogen
T3 sequence (P33981 1-857): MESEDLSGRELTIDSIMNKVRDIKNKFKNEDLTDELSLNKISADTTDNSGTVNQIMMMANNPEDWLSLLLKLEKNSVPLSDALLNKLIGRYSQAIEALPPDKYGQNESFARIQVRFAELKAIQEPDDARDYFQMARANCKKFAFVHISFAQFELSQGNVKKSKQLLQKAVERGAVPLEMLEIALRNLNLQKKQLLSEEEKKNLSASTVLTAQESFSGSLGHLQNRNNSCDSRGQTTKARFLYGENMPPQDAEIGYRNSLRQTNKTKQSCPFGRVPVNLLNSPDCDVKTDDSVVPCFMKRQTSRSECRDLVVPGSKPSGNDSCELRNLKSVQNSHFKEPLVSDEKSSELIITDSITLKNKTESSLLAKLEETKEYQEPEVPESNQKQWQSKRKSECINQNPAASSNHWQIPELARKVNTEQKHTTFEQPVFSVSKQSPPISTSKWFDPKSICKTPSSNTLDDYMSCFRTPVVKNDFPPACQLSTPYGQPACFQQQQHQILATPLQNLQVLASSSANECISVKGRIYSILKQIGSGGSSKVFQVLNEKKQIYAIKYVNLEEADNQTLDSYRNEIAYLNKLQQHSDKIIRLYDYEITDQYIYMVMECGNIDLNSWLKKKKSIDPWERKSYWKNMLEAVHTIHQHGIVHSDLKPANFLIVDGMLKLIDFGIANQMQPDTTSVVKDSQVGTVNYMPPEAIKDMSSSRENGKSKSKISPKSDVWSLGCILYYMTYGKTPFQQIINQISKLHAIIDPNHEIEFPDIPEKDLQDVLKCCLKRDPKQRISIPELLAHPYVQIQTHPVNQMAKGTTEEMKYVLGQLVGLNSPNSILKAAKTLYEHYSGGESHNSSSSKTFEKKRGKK
Description: Active TTK was purchased from Invitrogen as an amino terminal GST fusion of full length human TTK.
TTK activity was measured using an indirect ELISA detection system. GST-TTK (0.68 nM) was incubated in the presence of 16 μM ATP (Sigma cat#A7699), 50 mM Hepes pH 7.2, 1 mM EGTA, 10 mM MgCl2, and 0.1% Pluronic in a 96 well microtitre plate pre-coated with amino terminal 6 histidine, sumo tagged TTK (amino acid residues 1-275). The reaction was allowed to proceed for 30 minutes, followed by 5 washes of the plate with Wash Buffer (phosphate buffered saline supplemented with 0.2% Tween 20), and incubation for 30 minutes with a 1:3000 dilution of primary antibody (Cell Signaling cat#9381). The plate was washed 5 times with Wash Buffer, incubated for 30 minutes in the presence of secondary antibody coupled to horse radish peroxidase (BioRad cat#1721019, 1:3000 concentration), washed an additional 5 times with Wash Buffer, and incubated in the presence of TMB substrate (Sigma cat#T0440). The colourimetric reaction was allowed to continue for 5 minutes, followed by addition of stop solution (0.5 N sulphuric acid), and quantified by detection at 450 nm with either a monochromatic or filter based plate reader (Molecular Devices M5 or Beckman DTX880, respectively).
Compounds were pre-incubated in the presence of enzyme for 5 minutes prior to addition of ATP and the activity remaining quantified using the above described activity assay. The % Inhibition of a compound was determined using the following formula; % Inhibition=100×(1−(experimental value−background value)/(high activity control−background value)). The IC50 value was determined using a non-linear 4 point logistic curve fit (XLfit4, IDBS) with the formula; (A+(B/(1+((x/C)̂D)))), where A=background value, B=range, C=inflection point, D=curve fit parameter.

T1 sequence (Q96GD4 whole entry): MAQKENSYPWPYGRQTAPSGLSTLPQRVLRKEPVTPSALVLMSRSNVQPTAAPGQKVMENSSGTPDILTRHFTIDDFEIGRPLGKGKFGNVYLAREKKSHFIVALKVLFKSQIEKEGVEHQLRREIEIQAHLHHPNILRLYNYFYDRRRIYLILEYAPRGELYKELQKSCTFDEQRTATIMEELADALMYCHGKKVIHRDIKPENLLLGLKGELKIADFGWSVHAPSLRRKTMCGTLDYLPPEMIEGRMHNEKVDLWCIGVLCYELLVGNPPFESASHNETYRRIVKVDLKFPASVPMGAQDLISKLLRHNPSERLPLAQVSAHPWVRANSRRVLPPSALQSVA

Work on CN1CCC(Oc2ccc(-c3n[nH]c4ccc(NC(=O)C(c5ccsc5)N5CCCC5)cc34)cc2)CC1 (centres unmarked) [Example A7, N-(3-(4-((1-methylpiperidin-4-yl)oxy)phenyl)-1H-indazol-5-yl)-2-(pyrrolidin-1-yl)-2-(thiophen-3-yl)acetamide] yielded an IC50 (Aurora B) of at most 5 µM and an IC50 (human PLK4) of at most 5 µM.
For O=C(Nc1ccc2[nH]nc(-c3ccc(N4CCC(O)CC4)cc3)c2c1)C(c1ccsc1)N1CCCC1 (centres unmarked) [Example A9, N-(3-(4-(4-hydroxypiperidin-1-yl)phenyl)-1H-indazol-5-yl)-2-(pyrrolidin-1-yl)-2-(thiophen-3-yl)acetamide], the IC50 (Aurora B) was at most 5 µM and the IC50 (human PLK4) was at most 5 µM.
CN1CCC(Oc2ccc(-c3n[nH]c4ccc(C(=O)NC(c5ccccc5)C5CC5)cc34)cc2)CC1 (centres unmarked) [Example A24, N-(cyclopropyl(phenyl)methyl)-3-(4-((1-methylpiperidin-4-yl)oxy)phenyl)-1H-indazole-5-carboxamide] gave an IC50 (Aurora B) of at most 5 µM and an IC50 (human PLK4) of at most 5 µM.
Molecule CN1CCC(Oc2ccc(-c3n[nH]c4ccc(C(=O)N[C@H](c5ccccc5)C5CC5)cc34)cc2)CC1 [Example A42, (S)—N-(cyclopropyl(phenyl)methyl)-3-(4-((1-methylpiperidin-4-yl)oxy)phenyl)-1H-indazole-5-carboxamide] has an IC50 (Aurora B) of at most 5 µM and an IC50 (human PLK4) of at most 5 µM.
CCN(C(=O)Nc1ccc2[nH]nc(-c3ccc(N4CCOCC4)cc3)c2c1)c1ccccc1 [Example A72, 1-ethyl-3-(3-(4-morpholinophenyl)-1H-indazol-5-yl)-1-phenylurea] showed an IC50 (human TTK) of at most 5 µM and an IC50 (human PLK4) of at most 5 µM.
Molecule CN1CCN(c2ccc(-c3n[nH]c4ccc(NC(=O)C(c5ccsc5)N5CCCC5)cc34)cc2)C(=O)C1 (centres unmarked) [Example A94, N-(3-(4-(4-Methyl-2-oxopiperazin-1-yl)phenyl)-1H-indazol-5-yl)-2-(pyrrolidin-1-yl)-2-(thiophen-3-yl)acetamide] has an IC50 (human TTK) of at most 5 µM and an IC50 (human PLK4) of at most 5 µM.
Work on O=C(NC(c1ccsc1)C1CC1)c1ccc2[nH]nc(-c3ccc(N4CCC(O)CC4)cc3)c2c1 (centres unmarked) [Example A101, N-(cyclopropyl(thiophen-3-yl)methyl)-3-(4-(4-hydroxypiperidin-1-yl)phenyl)-1H-indazole-5-carboxamide] yielded an IC50 (Aurora B) of at most 5 µM and an IC50 (human PLK4) of at most 5 µM.
CN(C)CC(=O)N1CCC(Oc2ccc(-c3n[nH]c4ccc(C(=O)NC(c5ccccc5)C5CC5)cc34)cc2)CC1 (centres unmarked) [Example A130, N-(cyclopropyl(phenyl)methyl)-3-(4-((1-(2-(dimethylamino)acetyl)piperidin-4-yl)oxy)phenyl)-1H-indazole-5-carboxamide] was tested, and the IC50 (Aurora B) was at most 5 µM and the IC50 (human PLK4) was at most 5 µM.
CC[C@@H](NC(=O)c1ccc2[nH]nc(-c3ccc(OC4CCN(C)CC4)cc3)c2c1)c1ccccc1Cl [Example A131, (R)—N-(1-(2-chlorophenyl)propyl)-3-(4-((1-methylpiperidin-4-yl)oxy)phenyl)-1H-indazole-5-carboxamide] showed an IC50 (Aurora B) of at most 5 µM and an IC50 (human PLK4) of at most 5 µM.
With CN1CCC(Oc2ccc(-c3n[nH]c4ccc(NC(=O)C(c5ccccn5)C5CCCC5)cc34)cc2)CC1 (centres unmarked) [Example A179, 2-cyclopentyl-N-(3-(4-((1-methylpiperidin-4-yl)oxy)phenyl)-1H-indazol-5-yl)-2-(pyridin-2-yl)acetamide] the IC50 (Aurora B) was at most 5 µM and the IC50 (human PLK4) was at most 5 µM.
COc1cc(-c2n[nH]c3ccc(C(=O)NC(c4ccccn4)C4CC4)cc23)ccc1OC1CCN(C=O)CC1 (centres unmarked) [Example A206, N-(cyclopropyl(pyridin-2-yl)methyl)-3-(4-((1-formylpiperidin-4-yl)oxy)-3-methoxyphenyl)-1H-indazole-5-carboxamide] showed an IC50 (Aurora B) of at most 5 µM, an IC50 (human TTK) of at most 5 µM and an IC50 (human PLK4) of at most 5 µM.
Molecule CN1CCC(Oc2ccc(-c3n[nH]c4ccc(C(=O)NCC(c5ccccc5)C5CCCC5)cc34)cc2)CC1 (centres unmarked) [Example A207, N-(2-cyclopentyl-2-phenylethyl)-3-(4-((1-methylpiperidin-4-yl)oxy)phenyl)-1H-indazole-5-carboxamide] has an IC50 (Aurora B) of at most 5 µM, an IC50 (human TTK) of at most 5 µM and an IC50 (human PLK4) of at most 5 µM.
CN1CCC(Oc2ccc(-c3n[nH]c4ccc(C(=O)NC(c5ccccn5)C5CCCC5)cc34)cc2)CC1 (centres unmarked) [Example A208, N-(cyclopentyl(pyridin-2-yl)methyl)-3-(4-((1-methylpiperidin-4-yl)oxy)phenyl)-1H-indazole-5-carboxamide] showed an IC50 (Aurora B) of at most 5 µM and an IC50 (human PLK4) of at most 5 µM.
O=C(NC(c1ccccn1)C1CC1)c1ccc2[nH]nc(-c3ccc(OC4CN(C5COC5)C4)cc3)c2c1 (centres unmarked) [Example A209, N-(cyclopropyl(pyridin-2-yl)methyl)-3-(4-((1-(oxetan-3-yl)azetidin-3-yl)oxy)phenyl)-1H-indazole-5-carboxamide] showed an IC50 (Aurora B) of at most 5 µM, an IC50 (human TTK) of at most 5 µM and an IC50 (human PLK4) of at most 5 µM.
CN1CCC(Oc2ccc(-c3n[nH]c4ccc(C(=O)NC(c5ccccn5)C5CCC5)cc34)cc2)CC1 (centres unmarked) [Example A210] gave an IC50 (Aurora B) of at most 5 µM, an IC50 (human TTK) of at most 5 µM and an IC50 (human PLK4) of at most 5 µM.
O=CN1CCC(Oc2ccc(-c3n[nH]c4ccc(C(=O)N[C@@H](c5ncccc5Cl)C5CC5)cc34)cc2)CC1 [Example A211, (R)—N-((3-chloropyridin-2-yl)(cyclopropyl)methyl)-3-(4-((1-formylpiperidin-4-yl)oxy)phenyl)-1H-indazole-5-carboxamide] was tested, and the IC50 (Aurora B) was at most 5 µM, the IC50 (human TTK) was at most 5 µM and the IC50 (human PLK4) was at most 5 µM.
O=C(N[C@@H](c1ncccc1Cl)C1CC1)c1ccc2[nH]nc(-c3ccc(OC4CCN(C5COC5)CC4)cc3)c2c1 [Example A215, (R)—N-((3-chloropyridin-2-yl)(cyclopropyl)methyl)-3-(4-((1-(oxetan-3-yl)piperidin-4-yl)oxy)phenyl)-1H-indazole-5-carboxamide] was tested, and the IC50 (human TTK) was at most 5 µM and the IC50 (human PLK4) was at most 5 µM.
O=C(N[C@H](c1ncccc1Cl)C1CC1)c1ccc2[nH]nc(-c3ccc(OC4CCN(C5COC5)CC4)cc3)c2c1 [Example A216, (S)—N-((3-chloropyridin-2-yl)(cyclopropyl)methyl)-3-(4-((1-(oxetan-3-yl)piperidin-4-yl)oxy)phenyl)-1H-indazole-5-carboxamide] showed an IC50 (human TTK) of at most 5 µM and an IC50 (human PLK4) of at most 5 µM.
